Data reported in US20250084128A1, “ANTIVIRAL […]-STAPLED SARS-CoV-2 PEPTIDE-C[…] USES THEREOF” (priority 2021, published 2025).

Tested on: pseudotyped SARS-CoV-2 virus
Assay type: cell-based

Row | Substance | differential antiviral activity
1 | DISGINASVVNIQKEIDR8NEVAKNXNESLIDLQELGK [SEQ ID NO: 15] | little to no activity
2 | DISGINASVVNIQKEI8RLNEVAXNLNESLIDLQELGK [SEQ ID NO: 13] | moderate activity
3 | DISGINASVVNIQKEID8LNEVAKXLNESLIDLQELGK [SEQ ID NO: 14] | little to no activity
4 | DISGINASVVNIQKEIDRL8EVAKNLXESLIDLQELGK [SEQ ID NO: 16] | moderate activity
5 | DISGINASVVNIQK8IDRLNEXAKNLNESLIDLQELGK [SEQ ID NO: 11] | little to no activity
